The values below come from EP0550007A2, “Eseroline derivatives having anticholinesterase activity, a process for their preparation and pharmaceutical compositions containing them” (priority 1991, dated 1993).

Bounds are passed on as bounds.

In one data set the target is T1, acetylcholinesterase (Mus musculus, UniProt P21836).
T1 construct: from tissue; host or cells: mouse brain
T1 sequence (P21836 32-614): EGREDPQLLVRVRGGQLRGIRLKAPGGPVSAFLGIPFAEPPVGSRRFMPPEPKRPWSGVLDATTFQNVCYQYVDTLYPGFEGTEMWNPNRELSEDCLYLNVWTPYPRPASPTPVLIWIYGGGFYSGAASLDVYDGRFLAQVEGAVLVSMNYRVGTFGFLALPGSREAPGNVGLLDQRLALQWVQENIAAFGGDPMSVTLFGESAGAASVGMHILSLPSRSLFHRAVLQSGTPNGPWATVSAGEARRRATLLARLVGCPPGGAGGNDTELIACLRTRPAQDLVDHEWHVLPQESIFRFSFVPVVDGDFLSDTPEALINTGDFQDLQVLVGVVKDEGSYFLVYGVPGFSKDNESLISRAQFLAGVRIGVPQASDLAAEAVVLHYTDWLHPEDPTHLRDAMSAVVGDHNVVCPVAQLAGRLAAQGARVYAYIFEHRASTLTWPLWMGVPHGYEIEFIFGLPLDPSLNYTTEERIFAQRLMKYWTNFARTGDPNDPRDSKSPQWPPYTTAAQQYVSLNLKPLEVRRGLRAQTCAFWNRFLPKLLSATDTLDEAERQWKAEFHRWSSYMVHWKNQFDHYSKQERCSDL
Briefly: inhibition of acetylcholinesterase activity on the mouse brain after single doses. Type of data set: in vivo. Particulars: for suppression of the enzymatic activity: even at higher doses; for duration of the inhibitory activity compared with physostigmine: mouse brain acetylcholinesterase; for inhibition of the acetylcholinesterase activity, on the mouse brain: single doses in the range 0.4 - 7 mg/kg.

Data set [1] in a line: antagonist effect on the stimulating effect of scopolamine (motor activity), ESE series. Type of data set: in vivo. As to conditions: oral administration of 2.5 mg; scopolamine 1 mg/kg. The procedure: This is countered by the oral administration of 2.5 mg of ESE001, ESE002, ESE003, ESE004.
The subject of data set [2] is mouse. Nature of the data set: analgesic activity, 2-phenylbenzoquinone test. Format: in vivo. From the text:
Expte. Biol. Med. 95, 729, (1957).]
The procedure followed represents a modification of the test developed by Hoffner [Dtsch. Med. Wschr. 55, 731 (1929)].

Data set [3] is described as follows: toxicity, LD50 i.p. (Table 1). Particulars: 50 % of the animals died within 24 hours from the administration; for LD50 at 24 h: in vivo, ip. Format: in vivo. The procedure:
LD50 is determined for the dose (mg/kg) at which 50 % of the animals died within 24 hours from the administration.

Data set [4] is described as follows: pharmacokinetics in mouse after oral and intramuscular administration. Type of data set: in vivo. The procedure: The kinetics of the four products to be considered, is studied in mouse after oral and intramuscular administration, of respectively 7 and 3.5 mg/kg respectively of ESE001, ESE002, ESE003, ESE004.
For data set [5], the system named is mouse. Briefly: spontaneous motility (Dews' method modified according to Carminati). Type of data set: in vivo, mouse (SWISS strain). Particulars: for reduction of spontaneous motility: oral, starting from minimal doses of 3.5-5 mg/kg, on average; for minimal doses causing a marked reduction of spontaneous motility: orally administered. From the text:
The Dews' method was utilized, as modified according to Carminati (Arch. Int. Pharmacodyn. et Thér. 181, 68,1969).

A short description of data set [6]: acute toxicity, oral LD50 in the mouse. As to conditions: mouse, in vivo, po.
Description: (§1) The mouse was used (Swiss strain having the average weight of the male mice being 26 g and 22 g that of the female mice: 5+5 animals per dose, observation period: 7days) The oral LD50 (suspension in 2% carboxymethylcellulose) were reported hereinbelow: Tab.2
Data set [7] concerns mouse. Nature of the data set: acute toxicity, oral LD50 in the mouse. Particulars: oral, suspension in 2% carboxymethylcellulose, observation period 7 days.
Description: as §1
A short description of data set [8]: preliminary pharmacokinetics, plasma level by HPLC. Format: in vivo, Wistar rats. As to conditions: rats, 6.2 mg/kg/os. From the text:
The presence of the substance in the plasma was evidenced by HPLC. With this method, the identification threshold was 0.15 mcg per ml of plasma.

Data set [9] relates to acetylcholinesterase activity (AchE). Briefly: in vivo anticholinesterase activity (blood and brain, Ellman colorimetric method). The arrangement: species or system Wistar male rats. As to conditions: rats, oral, 1.5 to 4 mg/kg; sacrificed after 20, 60 and 120 minutes. On the procedure:
The derivatives, under question and physostigmine suspended in 2% carboxymethylcellulose, were orally administered to groups of Wistar male rats (average weight about 250 g).
On the base of the obtained results in preliminary trials, the doses utilized for the comparison were comprised beween 0.2 and 0.4 mg/kg for physostigmine and between 1.5 and 4 mg/kg for the eseroline derivatives under question.
The groups of treated rats were sacrificed after 20, 60, and 120 minutes and the blood and the brain of each animal were immediately cooled to 0°C and maintained at this temperature during the successive treatments.
The acetylcholinesterase activity (AchE) was determined by using the Ellman et al's quick colorimetric method (Biochem. Pharmacol., 7, 88, 1961) and it was expressed as enzymatic inhibition percentage.

As for `CN1CC[C@@]2(C)c3cc(OC(=O)NN4CCOCC4)ccc3N(C)[C@@H]12` [ESE003, (3-aS-cis)-1,2,3,3a,8,8a-hexahydro 1,3a,8-trimethylpyrrole [2,3-B]-indole 5-ol-1-morpholinyl-carbamate ester], on acetylcholinesterase, the “suppression of the enzymatic activity” value is “do not suppress the enzymatic activity”; the “duration of the inhibitory activity compared with physostigmine” value is “last longer than that of physostigmine”; the “inhibition of the acetylcholinesterase activity, on the mouse brain” value (from here on “inhibition”) is reported as “dose-dependence, reversible inhibition”. Besides, the “countering of the stimulating effect of scopolamine” value (shortened to “countering”) in data set [1] was “countered”. The analgesic activity entry with mouse [2] is given as “show also analgesic activity”. For the same compound, in data set [3] (1440 min), the LD50 is below 80 mg/kg. This compound also showed an LD50 at 24 h in data set [3] above 40 mg/kg. Further, the “liver kinetics / excretion” value in [4] is “pass through into the urine unchanged”.
For `CN1CC[C@@]2(C)c3cc(OC(=O)N[C@H]4C(O)O[C@H](CO)[C@@H](O)[C@@H]4O)ccc3N(C)[C@@H]12` (stereo partly drawn) [MGT4, eseroline N-D-glucosamine carbamate], in the data set with mouse [5], the “reduction of spontaneous motility” value is on record as around -39% and the “minimal doses causing a marked reduction of spontaneous motility” value (“minimal doses causing a marked reduction” below) is 3.5 to 5 mg/kg. In data set [6], the LD50 at 168 h was found to be 398 mg/kg.
In the case of `CN1CC[C@@]2(C)c3cc(OC(=O)NN4CCNCC4)ccc3N(C)[C@@H]12` [ESE002, (3-aS-cis)-1,2,3,3a,8,8a-hexahydro 1,3a,8-trimethylpyrrole [2,3-B]-indole 5-ol-1-piperazinyl-carbamate ester], on acetylcholinesterase, the “suppression of the enzymatic activity” value is “do not suppress the enzymatic activity”; the “duration of the inhibitory activity compared with physostigmine” value was “last longer than that of physostigmine”; the “inhibition” value is “dose-dependence, reversible inhibition”. For the same compound, in data set [1], the “countering” value is on record as “countered”. For the same compound, the analgesic activity entry in the data set with mouse [2] is “show also analgesic activity”. This compound also gave an LD50 in data set [3] (1440 min) below 80 mg/kg. For the same compound, the LD50 at 24 h in data set [3] was above 40 mg/kg. In [4], the “liver kinetics / excretion” value is given as “pass through into the urine unchanged”.
On to `CN1CC[C@@]2(C)c3cc(OC(=O)NN4CCSCC4)ccc3N(C)[C@@H]12` [ESE004, (3-aS-cis)-1,2,3,3a,8,8a-hexahydro 1,3a,8-trimethylpyrrole [2,3-B]-indole 5-ol-1-thio-morpholinyl-carbamate ester], for which, on acetylcholinesterase, the “suppression of the enzymatic activity” value was “do not suppress the enzymatic activity”; the “duration of the inhibitory activity compared with physostigmine” value was “last longer than that of physostigmine”; the “inhibition” value is “dose-dependence, reversible inhibition”. Further, in data set [1], the “countering” value was “countered”. Moreover, the analgesic activity entry in the data set on mouse [2] is “show also analgesic activity”. In data set [3] (1440 min), the LD50 is recorded as below 80 mg/kg. In data set [3], this compound displayed an LD50 at 24 h above 40 mg/kg. In addition, the “liver kinetics / excretion” value in data set [4] is “pass through into the urine unchanged”.
Turning to `CNC(=O)Oc1ccc2c(c1)[C@]1(C)CCN(C)[C@@H]1N2C` [Physostigmine, reference compound], the LD50 at 24 h in [3] was 0.64 mg/kg. Further, the “LD50 in the mouse” value with mouse [7] is recorded as 4,39 ± 1,14 mg/kg.
On to `CN1CC[C@@]2(C)c3cc(OC(=O)NN4CCN(CCO)CC4)ccc3N(C)[C@@H]12` [ESE005], for which the LD50 in data set [3] (1440 min) was above 40 mg/kg. This compound came in with a median lethal dose (LD50) at 24 h in [3] below 80 mg/kg.
Taken in the same sequence, the figures for `CCCC1CCN(NC(=O)Oc2ccc3c(c2)[C@]2(C)CCN(C)[C@@H]2N3C)C1=O` (stereo partly drawn) [ESE011, (3-aS-cis)-1,2,3,3a,8,8a-hexahydro 1,3a,8-trimethylpyrrole [2,3-B]-indole 5-ol-1-(3-propyl)-2 pyrrolidone-carbamate ester] were below 60 mg/kg and above 30 mg/kg.
The matching figures for `CN1CC[C@@]2(C)c3cc(OC(=O)NN4CCCNCC4)ccc3N(C)[C@@H]12` [ESE006, (3-aS-cis)-1,2,3,3a,8,8a-hexahydro 1,3a,8-trimethylpyrrole [2,3-B]-indole 5-ol-homopiperazinylcarbamate ester]: below 80 mg/kg and above 40 mg/kg.
Taken in the same sequence, the figures for `CN1CC[C@@]2(C)c3cc(OC(=O)NC4CN5CCC4CC5)ccc3N(C)[C@@H]12` (stereo partly drawn) [ESE012, (3-aS-cis)-1,2,3,3a,8,8a-hexahydro 1,3a,8-trimethylpyrrole [2,3-B]-indole 5-ol-3 quinuclidyl-carbamate ester] were below 60 mg/kg and above 30 mg/kg.
With `CN1CC[C@@]2(C)c3cc(OC(=O)N4CCCC4)ccc3N(C)[C@@H]12` (relative stereo) [ESE001, (3-aS-cis)-1,2,3,3a,8,8a-hexahydro 1,3a,8-trimethylpyrrole [2,3-B]-indole 5-ol-1-pyrrolidinyl-carbamate ester], on acetylcholinesterase, the “suppression of the enzymatic activity” value is listed as “do not suppress the enzymatic activity”; the “duration of the inhibitory activity compared with physostigmine” value is recorded as “last longer than that of physostigmine”; the “inhibition” value is listed as “dose-dependence, reversible inhibition”. In addition, the “countering” value in data set [1] is listed as “countered”. Further, the analgesic activity result with mouse [2] is listed as “show also analgesic activity”. This compound also displayed an LD50 in data set [3] of 5 mg/kg. In [4], the “liver kinetics / excretion” value was “pass through into the urine unchanged”.
In the case of `CN1CC[C@@]2(C)c3cc(OC(=O)N[C@H]4CCCCNC4=O)ccc3N(C)[C@@H]12` [MGT1, eseroline R-caprolactam carbamate], in the data set with mouse [5], the “reduction of spontaneous motility” value is recorded as around -39% and the “minimal doses causing a marked reduction” value lay within 3.5 to 5 mg/kg. Further, in [8], the “maximum peak in plasma” value turned out to be 36.14 ± 7.12 µg/mL and the “time of the maximum peak” value is 90 '. This compound also came in with a concentration in plasma in data set [8] (after 24 hours) of 5090 ± 1710 ng/mL. The concentration in plasma in data set [8] (time not given) was found to be 17110 ± 3810 ng/mL. In data set [6], this compound had an LD50 at 168 h of 322 mg/kg.
For the compound `CCCC1CN(NC(=O)Oc2ccc3c(c2)[C@]2(C)CCN(C)[C@@H]2N3C)CCO1` (stereo partly drawn) [ESE009, (3-aS-cis)-1,2,3,3a,8,8a-hexahydro 1,3a,8-trimethylpyrrole [2,3-B]-indole 5-ol-4-(3-propyl)-morpholinylcarbamate ester], the LD50 in data set [3] (1440 min) is reported as below 60 mg/kg. The compound also yielded an LD50 at 24 h in data set [3] above 30 mg/kg.
Taken in the same sequence, the figures for `CC1CCCC(C)N1NC(=O)Oc1ccc2c(c1)[C@]1(C)CCN(C)[C@@H]1N2C` (stereo partly drawn) [ESE007, (3-aS-cis)-1,2,3,3a,8,8a-hexahydro 1,3a,8-trimethylpyrrole [2,3-B]-indole 5-ol-1-(2,6-dimethyl) piperidine carbamate ester] were below 80 mg/kg and above 40 mg/kg.
Taken in the same sequence, the figures for `CCCC1CCCN(NC(=O)Oc2ccc3c(c2)[C@]2(C)CCN(C)[C@@H]2N3C)C1C` (stereo partly drawn) [ESE010, (3-aS-cis)-1,2,3,3a,8,8a-hexahydro 1,3a,8-trimethylpyrrole [2,3-B]-indole 5-ol-1-(3-propyl)-2-pipecolinylcarbamate ester] were below 60 mg/kg and above 30 mg/kg.
For `CN1CCC2(C)c3cc(OC(=O)NC4CCCN(CCO)C4=O)ccc3N(C)C12` (stereo not shown) [MGT3, eseroline N-ethanol-2-piperidone-3 aminocarbamate], in the data set with mouse [5], the “reduction of spontaneous motility” value is around -39% and the “minimal doses causing a marked reduction” value is 3.5 to 5 mg/kg. In addition, the “inhibitory activity of the acetylcholinesterase” value in data set [9] is “evident dose dipendent and reversible inhibitory activity”. Besides, the “LD50 in the mouse” value in the data set on mouse [7] is recorded as 383,7 ± 41,2 mg/kg.
